Test results from patent US20090215742A1, “AMIDE […]” (PFIZER, INC., priority 2005, published 2009).

Molecular target: T1, HSP-90 (Homo sapiens, UniProt P07900)
T1 construct: fused on or other part: 6-His tag at the C-terminus
Test: HSP-90 SPA (scintillation proximity assay) competition binding assay, displacement of tritiated propyl-Geldanamycin
Settings: for inhibition at 1 µM: read-out: % inhibition @ 1 μM; for inhibition at 10 µM: read-out: % inhibition @ 10 μM
Protocol: Compounds of the present invention were evaluated for potency against HSP-90 using a SPA (scintillation proximity assay) competition binding assay. Briefly, either full length or N-terminal HSP-90 that contains a 6-His tag on its C-terminus binds to copper on Yttrium-silicate scintillant beads via the His-tag. Tritiated propyl-Geldanamycin (pGA), whose structure is shown below, is an analog of a natural inhibitor of HSP-90 called Geldanamycin.
Tritiated pGA, which contains a tritiated propyl-amine group added at the #17 position, binds HSP-90 and brings the isotope into proximity with the beads. […] The beta signal emitted from the isotope excites the scintillant, which creates a measurable signal. As competitive compounds are added to the assay mixture, they compete with bound tritiated pGA at the ATP-binding site on the N-terminal of HSP-90. When a compound displaces the labeled pGA, the signal is reduced (the beta-particles are no longer in proximity with the bead). This reduction in signal is used to quantify the extent to which the inhibitor/compound is competitive with pGA.
Typical reaction solutions contained 30 nM HSP-90 and 200 nM ^3H-pGA in binding buffer (100 mM Hepes, pH 7.5 and 150 mM KCl). […] Inhibitors were added to the HSP-90/^3H-pGA solutions at eleven different concentrations for Ki determinations. […] To determine percent inhibition, the compound was tested at 1 and 10 μM. The final DMSO in the samples was 4%. Copper-Ysi beads (Amersham, #RPNQ0096) that have been diluted in binding buffer were added to each well to give a final concentration of 100 μg/well. The plates were sealed, covered with a foil-covered lid and shaken for 30 minutes at room temperature. The beads were allowed to settle for 30 minutes after which the plates were counted using a Packard TopCount NXT instrument. This procedure has also been adapted for medium throughput using a Beckman Biomek FX. Samples were run in duplicate and on two separate days to assure an accurate value of Ki.
For Ki determinations, the corrected cpm's (actual cpm's minus background) were plotted vs. inhibitor concentration using GraphPad Prism software. […] The IC50 was then used to calculate the Ki by using the Cheng-Prusoff equation: […]
This is normally true when the observed IC50 is […] the HSP-90 concentration. For a tight binding inhibitor, the following equation can be applied: […]
EL and ELo are the radioligand-HSP-90 complexes in the presence and absence of inhibitor, respectively. EL/ELo represents the fractional signal in the presence of inhibitor. Io, Eo, and Lo are the inhibitor, HSP-90, and radioligand concentrations, respectively.

| Compound | inhibition at 1 µM | inhibition at 10 µM |
| --- | --- | --- |
| O=C(c1ccc(O)cc1O)N1CCOCC(COCc2c(Cl)cccc2Cl)C1 (stereo not shown) [Example 122, 4-[(6-{[(2,6-dichlorobenzyl)oxy]methyl}-1,4-oxazepan-4-yl)carbonyl]benzene-1,3-diol] | 48.2% | 79% |
| O=C(c1ccc(O)cc1O)N1CCC(c2ccccc2)C1 (stereo not shown) [Example 93, 4-[(3-phenylpyrrolidin-1-yl)carbonyl]benzene-1,3-diol] | 34.5% | 76.1% |
| Cc1cc(C)c2c(c1)CCC1(CCN(C(=O)c3ccc(O)cc3O)CC1)O2 [Example 75, 4-[(6,8-dimethyl-3,4-dihydro-1′H-spiro[chromene-2,4′-piperidin]-1′-yl)carbonyl]benzene 1,3-diol] | 51.6% | 82% |
| O=C(c1ccc(O)cc1O)N1CCCCC1CCC1CCCC1 (stereo not shown) [Example 44, 4-{[2-(2-cyclopentylethyl)piperidin-1-yl]carbonyl}benzene-1,3-diol] | 82.4% | 90.5% |
| CN(Cc1ccc(Cl)cc1)C(=O)c1ccc(O)cc1O [Example 106, N-(4-chlorobenzyl)-2,4-dihydroxy-N-methylbenzamide] | 26.9% | 72.4% |
| COc1ccc(CCN(C)C(=O)c2ccc(O)cc2O)cc1OC [Example 102, N-[2-(3,4-dimethoxyphenyl)ethyl]-2,4-dihydroxy-N-methylbenzamide] | 9.8% | 54.4% |
| O=C(c1ccc(O)cc1O)N1CCC(O)(c2ccc(Cl)cc2)CC1 [Example 76, 4-{[4-(4-chlorophenyl)-4-hydroxypiperidin-1-yl]carbonyl}benzene-1,3-diol] | 48.4% | 81% |
| O=C(c1cc(-c2ccc(F)cc2F)ccc1O)N1Cc2ccccc2C1 [Example 28, 3-(1,3-dihydro-2H-isoindol-2-ylcarbonyl)-2′,4′-difluorobiphenyl-4-ol] | 50.8% | 76.2% |
| Nc1nccc(-c2ccc(O)c(C(=O)N3Cc4ccccc4C3)c2)n1 [Example 31, 4-(2-aminopyrimidin-4-yl)-2-(1,3-dihydro-2H-isoindol-2-ylcarbonyl)phenol] | 8.1% | 12.9% |
| O=C(c1ccc(O)cc1O)N1CCC2(CC1)OCc1ccccc12 [Example 80, 4-(1′H,3H-spiro[2-benzofuran-1,4′-piperidin]-1′-ylcarbonyl)benzene-1,3-diol] | 42% | 81.3% |
| O=C(c1ccc(O)cc1O)N1CCOC(COc2cc(F)cc(F)c2)C1 (stereo not shown) [Example 114, 4-({2-[(3,5-difluorophenoxy)methyl]morpholin-4-yl}carbonyl)benzene-1,3-diol] | 60.2% | 83.2% |
| C[C@H]([C@@H](O)c1ccccc1)N(C)C(=O)c1ccc(O)cc1O [Example 53, 2,4-dihydroxy-N-(2-hydroxy-1-methyl-2-phenylethyl)-N-methylbenzamide] | -7.8% | 7.3% |
| CC1CCN(C(=O)c2ccc(O)cc2O)CC1 [Example 42, 4-[(4-methylpiperidin-1-yl)carbonyl]benzene-1,3-diol] | 59.9% | 86.5% |
| O=C(c1ccc(O)cc1O)N1CCC(CCc2ccccc2)CC1 [Example 49, 4-{[4-(2-phenylethyl)piperidin-1-yl]carbonyl}benzene-1,3-diol] | 61.2% | 86.3% |
| O=C(c1ccc(O)cc1O)N1CCCC1c1ccc(Cl)cc1 (stereo not shown) [Example 84, 4-{[2-(4-chlorophenyl)pyrrolidin-1-yl]carbonyl}benzene-1,3-diol] | 76.2% | 89.8% |
| Cc1ccccc1C1CCCN1C(=O)c1ccc(O)cc1O (stereo not shown) [Example 73, 4-{[2-(2-methylphenyl)pyrrolidin-1-yl]carbonyl}benzene-1,3-diol] | 82.7% | 91.6% |

| Compound | inhibition at 1 µM | inhibition at 10 µM |
| --- | --- | --- |
| CN(Cc1ccc(F)cc1)C(=O)c1ccc(O)cc1O [Example 105, N-(4-fluorobenzyl)-2,4-dihydroxy-N-methylbenzamide] | 30.2% | 69.3% |
| CC(C)(C)CC1CCCCN1C(=O)c1ccc(O)cc1O (stereo not shown) [Example 41, 4-{[2-(2,2-dimethylpropyl)piperidin-1-yl]carbonyl}benzene-1,3-diol] | 64.8% | 86.8% |
| O=C(c1ccc(O)cc1O)N1CCOCC(O)(COCC2CC2)C1 (stereo not shown) [Example 38] | 27.4% | 68.4% |
| O=C(c1ccc(O)cc1O)N1CCSC1 [Example 117, 4-(1,3-thiazolidin-3-ylcarbonyl)benzene-1,3-diol] | 65% | 89.2% |
| CCOc1cc2c(cc1OCC)CN(C(=O)c1ccc(O)cc1O)CC2 [Example 56, 4-[(6,7-diethoxy-3,4-dihydroisoquinolin-2(1H)-yl)carbonyl]benzene-1,3-diol] | 27% | 73% |
| O=C(c1ccc(O)cc1O)N1CCOCC2(CC(c3ccccc3)=NO2)C1 (stereo not shown) [Example 130] | 46.2% | 82.4% |
| Cc1ccccc1C1(O)CCN(C(=O)c2ccc(O)cc2O)C1 (stereo not shown) [Example 100, 4-{[3-hydroxy-3-(2-methylphenyl)pyrrolidin-1-yl]carbonyl}benzene-1,3-diol] | 35.9% | 79.1% |
| O=C(c1cc(Cl)cc(Cl)c1O)N1Cc2ccccc2C1 [Example 208, 2,4-dichloro-6-(1,3-dihydro-2H-isoindol-2-ylcarbonyl)phenol] |  | 0% |
| O=C(c1ccc(O)cc1O)N1CCC(O)(c2ccccc2)CC1 [Example 77, 4-[(4-hydroxy-4-phenylpiperidin-1-yl)carbonyl]benzene-1,3-diol] | 44.6% | 79.6% |
| O=C(c1ccc(O)cc1O)N1CCC(CCc2ncccn2)CC1 [Example 46, 4-{[4-(2-pyrimidin-2-ylethyl)piperidin-1-yl]carbonyl}benzene-1,3-diol] | 44.9% | 77.1% |
| O=C1CC2(CCN(C(=O)c3ccc(O)cc3O)CC2)Oc2ccccc21 [Example 85] | 52.1% | 79.6% |
| O=C(c1ccc(O)cc1O)N1CCN(c2cnccn2)CC(CO)C1 (stereo not shown) [Example 124, 4-{[6-(hydroxymethyl)-4-pyrazin-2-yl-1,4-diazepan-1-yl]carbonyl}benzene-1,3-diol] | -4.8% | 18.1% |
| CCc1nccc(-c2ccc(O)c(C(=O)N3Cc4ccccc4C3)c2)n1 [Example 34, 2-(1,3-dihydro-2H-isoindol-2-ylcarbonyl)-4-(2-ethylpyrimidin-4-yl)phenol] | -3.1% | 43% |
| O=C(c1ccc(F)cc1O)N1Cc2ccccc2C1 [Example 29, 2-(1,3-dihydro-2H-isoindol-2-ylcarbonyl)-5-fluorophenyl] | 0% | 26.6% |
| O=C(c1ccc(O)cc1O)N1CCOCC2(CC(c3cc(F)cc(F)c3)=NO2)C1 (stereo not shown) [Example 128, 4-{[3-(3,5-difluorophenyl)-1,7-dioxa-2,10-diazaspiro[4.6]undec-2-en-10-yl]carbonyl}benzene-1,3-diol] | 31.2% | 73.1% |
